Data as given in PubChem BioAssay AID1259407 (Chemical Carcinogenesis Research Information System (CCRIS), 2018).
The source made the active and inactive calls. No rule for the calls is given here.

Tested on: CCRIS mutagenicity, Ames/micronucleus/aberration tests
Experiment: CCRIS mutagenicity studies

Measured: mutagenic call

Cc1cccn2c(=O)c(-c3nnn[nH]3)cnc12
inactive: Test System: AMES SALMONELLA TYPHIMURIUM, Strain/Indicator: TA98, Metabolic Activation: NONE, Method: STANDARD PLATE inactive; negative | Test System: AMES SALMONELLA TYPHIMURIUM, Strain/Indicator: TA98, Metabolic Activation: S-9, Method: STANDARD PLATE inactive; negative | Test System: AMES SALMONELLA TYPHIMURIUM, Strain/Indicator: TA100, Metabolic Activation: NONE, Method: STANDARD PLATE inactive; negative | Test System: AMES SALMONELLA TYPHIMURIUM, Strain/Indicator: TA100, Metabolic Activation: S-9, Method: STANDARD PLATE inactive; negative | Test System: AMES SALMONELLA TYPHIMURIUM, Strain/Indicator: TA1535, Metabolic Activation: NONE, Method: STANDARD PLATE inactive; negative | Test System: AMES SALMONELLA TYPHIMURIUM, Strain/Indicator: TA1535, Metabolic Activation: S-9, Method: STANDARD PLATE inactive; negative | Test System: AMES SALMONELLA TYPHIMURIUM, Strain/Indicator: TA1537, Metabolic Activation: NONE, Method: STANDARD PLATE inactive; negative | Test System: AMES SALMONELLA TYPHIMURIUM, Strain/Indicator: TA1537, Metabolic Activation: S-9, Method: STANDARD PLATE inactive; negative | Test System: AMES SALMONELLA TYPHIMURIUM, Strain/Indicator: TA1538, Metabolic Activation: NONE, Method: STANDARD PLATE inactive; negative | Test System: AMES SALMONELLA TYPHIMURIUM, Strain/Indicator: TA1538, Metabolic Activation: S-9, Method: STANDARD PLATE inactive; negative | Test System: E. COLI, Strain/Indicator: WP2 UVRA, Metabolic Activation: NONE, Method: STANDARD PLATE inactive; negative | Test System: E. COLI, Strain/Indicator: WP2 UVRA, Metabolic Activation: S-9, Method: STANDARD PLATE inactive; negative

Nc1ncnc2c1ncn2Cc1ccc([N+](=O)[O-])cc1
inactive: Test System: AMES SALMONELLA TYPHIMURIUM, Strain/Indicator: TA98(1,8-DNP), Metabolic Activation: NONE, Method: PREINCUBATION inactive; negative | Test System: AMES SALMONELLA TYPHIMURIUM, Strain/Indicator: TA98(1,8-DNP), Metabolic Activation: RAT, LIVER, S-9, PCB, Method: PREINCUBATION inactive; negative | Test System: AMES SALMONELLA TYPHIMURIUM, Strain/Indicator: TA98(NR), Metabolic Activation: NONE, Method: PREINCUBATION inactive; negative | Test System: AMES SALMONELLA TYPHIMURIUM, Strain/Indicator: TA98(NR), Metabolic Activation: RAT, LIVER, S-9, PCB, Method: PREINCUBATION inactive; negative | Test System: AMES SALMONELLA TYPHIMURIUM, Strain/Indicator: TA98, Metabolic Activation: NONE, Method: PREINCUBATION inactive; negative | Test System: AMES SALMONELLA TYPHIMURIUM, Strain/Indicator: TA98, Metabolic Activation: RAT, LIVER, S-9, PCB, Method: PREINCUBATION inactive; negative | Test System: AMES SALMONELLA TYPHIMURIUM, Strain/Indicator: TA100(1,8-DNP), Metabolic Activation: NONE, Method: PREINCUBATION inactive; negative | Test System: AMES SALMONELLA TYPHIMURIUM, Strain/Indicator: TA100(1,8-DNP), Metabolic Activation: RAT, LIVER, S-9, PCB, Method: PREINCUBATION inactive; negative | Test System: AMES SALMONELLA TYPHIMURIUM, Strain/Indicator: TA100(NR), Metabolic Activation: NONE, Method: PREINCUBATION inactive; negative | Test System: AMES SALMONELLA TYPHIMURIUM, Strain/Indicator: TA100(NR), Metabolic Activation: RAT, LIVER, S-9, PCB, Method: PREINCUBATION inactive; negative | Test System: AMES SALMONELLA TYPHIMURIUM, Strain/Indicator: TA100, Metabolic Activation: NONE, Method: PREINCUBATION inactive; negative | Test System: AMES SALMONELLA TYPHIMURIUM, Strain/Indicator: TA100, Metabolic Activation: RAT, LIVER, S-9, PCB, Method: PREINCUBATION inactive; negative | Test System: AMES SALMONELLA TYPHIMURIUM, Strain/Indicator: YG1020, Metabolic Activation: NONE, Method: PREINCUBATION inactive; negative | Test System: AMES SALMONELLA TYPHIMURIUM, Strain/Indicator: YG1020, Metabolic Activation: RAT, LIVER, S-9, PCB, Method: PREINCUBATION inactive; negative | Test System: AMES SALMONELLA TYPHIMURIUM, Strain/Indicator: YG1024, Metabolic Activation: NONE, Method: PREINCUBATION inactive; negative | Test System: AMES SALMONELLA TYPHIMURIUM, Strain/Indicator: YG1024, Metabolic Activation: RAT, LIVER, S-9, PCB, Method: PREINCUBATION inactive; negative | Test System: AMES SALMONELLA TYPHIMURIUM, Strain/Indicator: YG1025, Metabolic Activation: NONE, Method: PREINCUBATION inactive; negative | Test System: AMES SALMONELLA TYPHIMURIUM, Strain/Indicator: YG1025, Metabolic Activation: RAT, LIVER, S-9, PCB, Method: PREINCUBATION inactive; negative | Test System: AMES SALMONELLA TYPHIMURIUM, Strain/Indicator: YG1026, Metabolic Activation: NONE, Method: PREINCUBATION inactive; negative | Test System: AMES SALMONELLA TYPHIMURIUM, Strain/Indicator: YG1026, Metabolic Activation: RAT, LIVER, S-9, PCB, Method: PREINCUBATION inactive; negative | Test System: AMES SALMONELLA TYPHIMURIUM, Strain/Indicator: YG1029, Metabolic Activation: NONE, Method: PREINCUBATION inactive; negative | Test System: AMES SALMONELLA TYPHIMURIUM, Strain/Indicator: YG1029, Metabolic Activation: RAT, LIVER, S-9, PCB, Method: PREINCUBATION inactive; negative
active: Test System: AMES SALMONELLA TYPHIMURIUM, Strain/Indicator: YG1021, Metabolic Activation: NONE, Method: PREINCUBATION active; positive
